Laboratory results taken from ChEMBL document CHEMBL1909046, “DrugMatrix in vitro pharmacology data”.
Where a SMILES comes first, the peptide text is derived from it. Bridges are numbered along the chain shown (N, C = ends). [ ]: non-standard residue; d: D form. The star is where a group is joined. Threoninol(2S,3R) = C[C@@H](O)[C@H](CO)N*

Legend:
Adenosine receptor A1 = target: T1, Adenosine receptor A1 (Homo sapiens, UniProt P30542); type: cell membranes, Membrane; settings: cho;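 note: radioligand binding assay at the adenosine A1 receptor, with DPCPX serving as the labelled ligand; in other assays of this panel Not Active means under 50% inhibition at 10 µM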
T1 sequence (P30542 whole entry): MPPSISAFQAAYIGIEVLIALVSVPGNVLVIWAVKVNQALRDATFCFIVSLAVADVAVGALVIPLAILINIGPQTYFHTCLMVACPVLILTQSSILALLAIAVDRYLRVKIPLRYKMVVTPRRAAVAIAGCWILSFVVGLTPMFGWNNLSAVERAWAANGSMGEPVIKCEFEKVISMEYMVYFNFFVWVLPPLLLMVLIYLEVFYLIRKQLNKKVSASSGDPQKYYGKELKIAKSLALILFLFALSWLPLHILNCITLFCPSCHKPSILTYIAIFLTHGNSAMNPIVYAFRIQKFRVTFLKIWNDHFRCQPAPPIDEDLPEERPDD

[1] = target: T2, Amine oxidase [flavin-containing] A (Homo sapiens, UniProt P21397); experiment: DRUGMATRIX: Monoamine Oxidase MAO-A enzyme inhibition (substrate: Kynuramine); set-up: species or system BTI-TN-5B1-4; settings: Not Active = under 50% inhibition at 10 µM
T2 sequence (P21397 whole entry): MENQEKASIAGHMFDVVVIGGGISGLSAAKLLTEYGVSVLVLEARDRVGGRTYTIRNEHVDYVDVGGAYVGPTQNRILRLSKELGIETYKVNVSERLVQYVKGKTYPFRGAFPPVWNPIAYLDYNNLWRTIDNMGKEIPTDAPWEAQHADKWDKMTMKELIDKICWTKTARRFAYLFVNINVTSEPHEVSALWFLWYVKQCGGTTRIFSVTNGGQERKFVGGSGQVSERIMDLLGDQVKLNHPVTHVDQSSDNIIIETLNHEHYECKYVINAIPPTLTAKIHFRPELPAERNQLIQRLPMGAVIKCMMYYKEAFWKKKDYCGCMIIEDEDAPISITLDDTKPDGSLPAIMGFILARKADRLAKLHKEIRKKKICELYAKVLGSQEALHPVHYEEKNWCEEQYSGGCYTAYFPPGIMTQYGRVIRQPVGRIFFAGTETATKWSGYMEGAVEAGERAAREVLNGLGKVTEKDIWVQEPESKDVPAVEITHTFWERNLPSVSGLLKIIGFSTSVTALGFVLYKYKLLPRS

[2] = target: T3, Neuropeptide Y receptor type 1 (Homo sapiens, UniProt P25929); type: cell membranes, Membrane; settings: sk-n-mc; note: in other assays of this panel Not Active means under 50% inhibition at 10 µM
T3 sequence (P25929 whole entry): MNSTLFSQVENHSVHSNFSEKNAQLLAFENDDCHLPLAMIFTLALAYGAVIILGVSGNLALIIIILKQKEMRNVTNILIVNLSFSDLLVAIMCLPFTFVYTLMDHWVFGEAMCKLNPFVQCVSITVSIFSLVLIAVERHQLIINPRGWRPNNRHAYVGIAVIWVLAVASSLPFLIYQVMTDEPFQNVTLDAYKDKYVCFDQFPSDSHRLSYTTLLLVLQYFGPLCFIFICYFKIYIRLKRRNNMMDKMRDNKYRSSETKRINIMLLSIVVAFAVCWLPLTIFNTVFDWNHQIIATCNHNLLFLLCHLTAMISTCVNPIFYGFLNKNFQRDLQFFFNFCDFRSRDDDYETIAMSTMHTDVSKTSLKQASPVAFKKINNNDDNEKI

[3] = DRUGMATRIX: beta-Lactamase enzyme inhibition (substrate: Nitrocefin); set-up: species or system Bacillus cereus; settings: Not Active = under 50% inhibition at 10 µM
[4] = target: T4, Alpha-1B adrenergic receptor (Rattus norvegicus, UniProt P15823); experiment: DRUGMATRIX: Alpha-1B adrenergic receptor radioligand binding (ligand: prazosin); type: cell membranes, Wistar, Liver, Membrane; settings: Not Active = under 50% inhibition at 10 µM
T4 sequence (P15823 whole entry): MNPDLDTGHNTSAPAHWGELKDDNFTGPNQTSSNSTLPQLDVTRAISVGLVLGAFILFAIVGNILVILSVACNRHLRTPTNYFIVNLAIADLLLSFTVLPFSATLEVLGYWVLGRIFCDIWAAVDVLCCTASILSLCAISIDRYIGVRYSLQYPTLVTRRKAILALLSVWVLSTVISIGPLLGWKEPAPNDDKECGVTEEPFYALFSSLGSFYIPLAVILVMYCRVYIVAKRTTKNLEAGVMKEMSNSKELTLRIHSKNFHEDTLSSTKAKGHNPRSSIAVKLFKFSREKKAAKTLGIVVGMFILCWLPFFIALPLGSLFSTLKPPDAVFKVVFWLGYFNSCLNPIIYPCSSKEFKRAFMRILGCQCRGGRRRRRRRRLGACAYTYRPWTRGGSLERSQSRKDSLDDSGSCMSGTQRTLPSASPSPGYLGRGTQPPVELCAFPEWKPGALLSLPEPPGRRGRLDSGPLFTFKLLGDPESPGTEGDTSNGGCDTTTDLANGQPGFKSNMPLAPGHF

[5] = DRUGMATRIX: Phorbol Ester radioligand binding (ligand: [3H] PDBu); type: cell membranes, Mus musculus, ICR, Brain, Membrane; settings: Not Active = under 50% inhibition at 10 µM
Vasopressin V1a receptor = Vasopressin V1a receptor (Homo sapiens, UniProt P37288); type: cell membranes, Membrane; settings: hek293; note: in other assays of this panel Not Active means under 50% inhibition at 10 µM
Vasopressin V1a receptor, sequence (P37288 whole entry): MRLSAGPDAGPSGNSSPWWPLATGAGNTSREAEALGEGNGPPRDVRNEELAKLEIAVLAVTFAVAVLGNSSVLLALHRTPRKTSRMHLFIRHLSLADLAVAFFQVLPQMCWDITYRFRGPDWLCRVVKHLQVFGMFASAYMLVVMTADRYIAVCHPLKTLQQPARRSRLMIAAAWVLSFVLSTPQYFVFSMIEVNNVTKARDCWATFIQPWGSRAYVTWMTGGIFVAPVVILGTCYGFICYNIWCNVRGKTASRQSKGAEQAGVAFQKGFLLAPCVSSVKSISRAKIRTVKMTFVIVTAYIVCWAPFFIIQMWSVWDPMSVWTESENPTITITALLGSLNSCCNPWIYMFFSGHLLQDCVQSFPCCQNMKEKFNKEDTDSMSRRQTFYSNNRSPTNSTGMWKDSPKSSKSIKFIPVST

[6] = target: Sodium-dependent dopamine transporter (Homo sapiens, UniProt Q01959); experiment: DRUGMATRIX: Dopamine Transporter radioligand binding (ligand: [125I] RTI-55); type: cell membranes, CHO-K1, Membrane; settings: Not Active = under 50% inhibition at 10 µM
Sodium-dependent dopamine transporter, sequence (Q01959 whole entry): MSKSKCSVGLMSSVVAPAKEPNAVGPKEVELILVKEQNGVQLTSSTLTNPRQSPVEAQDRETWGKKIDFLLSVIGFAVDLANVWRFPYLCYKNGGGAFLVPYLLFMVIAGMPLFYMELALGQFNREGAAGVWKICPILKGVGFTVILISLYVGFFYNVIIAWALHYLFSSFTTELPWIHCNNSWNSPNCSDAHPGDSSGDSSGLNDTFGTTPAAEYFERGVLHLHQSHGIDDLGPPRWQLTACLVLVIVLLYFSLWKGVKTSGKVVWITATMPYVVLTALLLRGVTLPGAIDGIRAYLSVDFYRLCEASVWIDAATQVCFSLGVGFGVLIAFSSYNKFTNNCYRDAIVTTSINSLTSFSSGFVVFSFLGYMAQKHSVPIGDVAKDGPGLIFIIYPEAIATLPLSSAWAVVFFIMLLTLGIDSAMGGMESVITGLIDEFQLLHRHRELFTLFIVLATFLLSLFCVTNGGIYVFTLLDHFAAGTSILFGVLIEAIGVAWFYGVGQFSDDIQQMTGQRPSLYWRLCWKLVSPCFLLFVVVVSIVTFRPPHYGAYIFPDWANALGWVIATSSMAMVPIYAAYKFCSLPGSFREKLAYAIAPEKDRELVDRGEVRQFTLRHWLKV

Compound	IC50 (Adenosine receptor A1)	Ki (Adenosine receptor A1)	IC50 ([1]; bti-tn-5b1-4)	Ki ([1]; bti-tn-5b1-4)	IC50 [2]	Ki [2]	IC50 [3]	Ki [3]	IC50 [4]	Ki [4]	IC50 [5]	Ki [5]	IC50 (Vasopressin V1a receptor)	Ki (Vasopressin V1a receptor)	IC50 ([6]; cho-k1)	Ki ([6]; cho-k1)	IC50 ([1]; read-out: IC50)	IC50 ([6]; read-out: IC50)	Ki ([6]; read-out: Ki)
CADMIUM DICHLORIDE	Not Active	Not Active	Not Active	Not Active	Not Active	Not Active	Not Active	Not Active	Not Active	Not Active	Not Active	Not Active	Not Active	Not Active	Not Active	Not Active			
CCCN(CCC)C(=O)C(CCC(=O)O)NC(=O)c1ccccc1 (stereo unspecified) [PROGLUMIDE]	Not Active		Not Active		Not Active		Not Active	Not Active	Not Active		Not Active	Not Active	Not Active		Not Active				
O=C(N[C@H](CO)[C@H](O)c1ccc([N+](=O)[O-])cc1)C(Cl)Cl [CHLORAMPHENICOL]	Not Active		Not Active		Not Active		Not Active	Not Active	Not Active		Not Active	Not Active	Not Active		Not Active				
CCCCOc1ccc(OCCCN2CCOCC2)cc1 [PRAMOXINE]	Not Active		Not Active		Not Active		Not Active	Not Active	Not Active		Not Active	Not Active	Not Active		Not Active				
CC(C)(C(=O)c1cccnc1)c1cccnc1 [METYRAPONE]	Not Active		Not Active		Not Active		Not Active	Not Active	Not Active		Not Active	Not Active	Not Active		Not Active				
CC(=O)Nc1cccc(O)c1 [METACETAMOL]	Not Active		Not Active		Not Active		Not Active	Not Active	Not Active		Not Active	Not Active	Not Active		Not Active				
NC(=O)c1cnccn1 [PYRAZINAMIDE]	Not Active		Not Active		Not Active		Not Active	Not Active	Not Active		Not Active	Not Active	Not Active		Not Active				
CC[C@@H](CO)NCCN[C@@H](CC)CO [ETHAMBUTOL]	Not Active		Not Active		Not Active		Not Active	Not Active	Not Active		Not Active	Not Active	Not Active		Not Active				
CC(C)(Oc1ccc(C2CCCc3ccccc32)cc1)C(=O)O (stereo unspecified) [NAFENOPIN]	Not Active		Not Active		Not Active		Not Active	Not Active	Not Active		Not Active	Not Active	Not Active		Not Active				
C[C@@H]1C[C@@H]([C@H](O)CC2CC(=O)NC(=O)C2)C(=O)[C@@H](C)C1 [CYCLOHEXIMIDE]	Not Active		Not Active		Not Active		Not Active	Not Active	Not Active		Not Active	Not Active	Not Active		Not Active				
CCn1cc(C(=O)O)c(=O)c2cc(F)c(N3CCN(C)CC3)cc21 [PEFLOXACIN]	Not Active		Not Active		Not Active		Not Active	Not Active	Not Active		Not Active	Not Active	Not Active		Not Active				
CCN(CC)CCOC(=O)c1ccc(N)cc1 [PROCAINE]	Not Active		Not Active		Not Active		Not Active	Not Active	Not Active		Not Active	Not Active	Not Active		Not Active				
CCCC(CCC)C(=O)O [VALPROIC ACID]	Not Active		Not Active		Not Active		Not Active	Not Active	Not Active		Not Active	Not Active	Not Active		Not Active				
S=C=Nc1cccc2ccccc12 [1-NAPHTHYLISOTHIOCYANATE]	Not Active				Not Active		Not Active	Not Active	Not Active		Not Active	Not Active	Not Active		Not Active		22.4 µM		
COc1ccc2cc([C@H](C)C(=O)O)ccc2c1 [NAPROXEN]	Not Active		Not Active		Not Active		Not Active	Not Active	Not Active		Not Active	Not Active	Not Active		Not Active				
Cc1ccccc1C(=O)N1CCC(Cc2ccccc2)CC1	Not Active		Not Active		Not Active		Not Active	Not Active	Not Active		Not Active	Not Active	Not Active		Not Active				
C[C@@H](O)[C@H](CO)NC(=O)[C@@H]1CSSC[C@H](NC(=O)[C@H](N)Cc2ccccc2)C(=O)N[C@@H](Cc2ccccc2)C(=O)N[C@H](Cc2c[nH]c3ccccc23)C(=O)N[C@@H](CCCCN)C(=O)N[C@@H]([C@@H](C)O)C(=O)N1 (H-[dF]CF[dW]KTC-{Threoninol(2S,3R)}; disulfide 2-7)	Not Active		Not Active		Not Active		Not Active	Not Active	Not Active		Not Active	Not Active	Not Active		Not Active				
Cc1nccn1CC1CCc2c(c3ccccc3n2C)C1=O (stereo unspecified) [ONDANSETRON]	Not Active		Not Active		Not Active		Not Active	Not Active	Not Active		Not Active	Not Active	Not Active		Not Active				
C#C[C@]1(O)CC[C@H]2[C@@H]3CCc4cc(OC)ccc4[C@H]3CC[C@@]21C [MESTRANOL]	Not Active		Not Active		Not Active		Not Active	Not Active	Not Active		Not Active	Not Active	Not Active		Not Active				
CN(C)c1ccc(C(=C2C=CC(=[N+](C)C)C=C2)c2ccc(N(C)C)cc2)cc1.[Cl-] [GENTIAN VIOLET]	Not Active		Not Active		Not Active		Not Active	Not Active			Not Active	Not Active	Not Active					4.07 µM	3.23 µM
